Results published in patent US10499642B2, “Isoxazoline-substituted benzamides and analogues as insecticides” (SYNGENTA PARTICIPATIONS AG, priority 2015, dated 2019).

What was measured:
Assay type in all cases: in vivo
[1] = test system: Thrips tabaci; assay: Thrips tabaci (onion thrips) sunflower leaf disc test; conditions: foliar, 144 h
Method: Thrips tabaci (Onion Thrips):
(§1) Sunflower leaf discs were placed on agar in 24-well microtiter plates and sprayed with aqueous test solutions prepared from 10′000 ppm DMSO stock solutions. After drying the leaf discs were infested with a thrips population of mixed ages. The samples were assessed for mortality 6 days after infestation.

[2] = test system: Spodoptera littoralis; assay: Spodoptera littoralis (Egyptian cotton leaf worm) cotton leaf disc test; conditions: foliar, 72 h, read-out: control (at least one of mortality, anti-feedant effect, and growth inhibition)
Outline: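 Cotton leaf discs on agar were sprayed with aqueous dilutions of 10′000 ppm DMSO stocks, dried and infested with five L1 larvae. Mortality, anti-feedant effect and growth inhibition were scored against untreated samples 3 days after infestation. Control = any of these higher than untreated.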

[3] = test system: Diabrotica Balteata; assay: Diabrotica balteata (corn root worm) maize sprout test; conditions: 96 h, read-out: effect in at least one of the two categories (mortality or growth inhibition)
Outline: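 Maize sprouts on agar were sprayed with aqueous test solutions made from 10′000 ppm DMSO stocks, dried, then infested with 6 to 10 L2 larvae per well. Mortality and growth inhibition versus untreated samples were assessed 4 days after infestation; application rate 200 ppm.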

[4] = test system: Myzus persicae; assay: Myzus persicae (green peach aphid) sunflower leaf disc test; conditions: foliar, 144 h
Method: Myzus persicae (Green Peach Aphid):
Sunflower leaf discs were placed on agar in a 24-well microtiter plate and sprayed with test solutions at an application rate of 200 ppm. After drying, the leaf discs were infested with an aphid population of mixed ages. After an incubation period of 6 days after treatment, samples were checked for mortality. The following compounds gave at least 80% mortality of Myzus persicae: […]

[5] = test system: Tetranychus urticae; assay: Tetranychus urticae (two-spotted spider mite) bean leaf disc test; conditions: foliar, 192 h
Method: Tetranychus urticae (Two-Spotted Spider Mite):
as §1, with “Bean” for “Sunflower”, “discs” for “discs were placed”, “were” for “and”, “mite” for “thrips”, “on mixed population (mobile stages) 8” for “6”

[6] = test system: Plutella xylostella; assay: Plutella xylostella (diamond back moth) artificial diet test; conditions: 120 h, read-out: effect in at least one of the two categories (mortality or growth inhibition)
Outline: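 Artificial diet treated with aqueous compound solutions made from DMSO stocks, dried, then infested with L2 larvae (10 to 15 per well). Mortality and growth inhibition scored versus untreated controls 5 days after infestation. Application rate 200 ppm.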

COC1=NOC(NC(=O)c2ccc(C3=NO[C@@](c4cc(Cl)c(F)c(Cl)c4)(C(F)(F)F)C3)cc2Cl)C1 (stereo partly drawn) [Compound A045]
≥ 80%: mortality at 200 ppm [1] | percent control (mortality, anti-feedant effect or growth inhibition) at 200 ppm [2] | percent effect (mortality or growth inhibition) at 200 ppm [3] | mortality at 200 ppm [4] | mortality at 200 ppm [5] | percent effect (mortality or growth inhibition) at 200 ppm [6]

Cc1cc(C2=NO[C@@](c3cc(Cl)c(Cl)c(Cl)c3)(C(F)(F)F)C2)ccc1C(=O)NC1CC(Br)=NO1 (stereo partly drawn) [Compound A125, N-(3-bromo-4,5-dihydroisoxazol-5-yl)-2-methyl-4-[(5S)-5-(3,4,5-trichlorophenyl)-5-(trifluoromethyl)-4H-isoxazol-3-yl]benzamide]
≥ 80%: mortality at 200 ppm [1] | percent control (mortality, anti-feedant effect or growth inhibition) at 200 ppm [2] | percent effect (mortality or growth inhibition) at 200 ppm [3] | mortality at 200 ppm [4] | mortality at 200 ppm [5] | percent effect (mortality or growth inhibition) at 200 ppm [6]

COC1=NOC(N(C=O)C(=O)c2ccc(C3=NO[C@@](c4cc(Cl)cc(Cl)c4)(C(F)(F)F)C3)cc2C)C1 (stereo partly drawn) [Compound A134]
≥ 80%: mortality at 200 ppm [1] | percent control (mortality, anti-feedant effect or growth inhibition) at 200 ppm [2] | percent effect (mortality or growth inhibition) at 200 ppm [3] | mortality at 200 ppm [4] | mortality at 200 ppm [5] | percent effect (mortality or growth inhibition) at 200 ppm [6]

Cc1cc(C2=NO[C@@](c3cc(Cl)c(Cl)c(Cl)c3)(C(F)(F)F)C2)ccc1C(=O)NC1CC(OCC(F)(F)F)=NO1 (stereo partly drawn) [Compound A129, 2-methyl-4-[(5S)-5-(3,4,5-trichlorophenyl)-5-(trifluoromethyl)-4H-isoxazol-3-yl]-N-[3-(2,2,2-trifluoroethoxy)-4,5-dihydroisoxazol-5-yl]benzamide]
≥ 80%: mortality at 200 ppm [1] | percent control (mortality, anti-feedant effect or growth inhibition) at 200 ppm [2] | percent effect (mortality or growth inhibition) at 200 ppm [3] | mortality at 200 ppm [4] | mortality at 200 ppm [5] | percent effect (mortality or growth inhibition) at 200 ppm [6]

COC1=NO[C@H](NC(=O)c2ccc(C3=NO[C@@](c4cc(Cl)c(Cl)c(Cl)c4)(C(F)(F)F)C3)cc2C)C1 (single isomer, unassigned) [Compound A148]
≥ 80%: mortality at 200 ppm [1] | percent control (mortality, anti-feedant effect or growth inhibition) at 200 ppm [2] | percent effect (mortality or growth inhibition) at 200 ppm [3] | mortality at 200 ppm [4] | mortality at 200 ppm [5] | percent effect (mortality or growth inhibition) at 200 ppm [6]

CC1=NOC(N(C=O)C(=O)c2ccc(C3=NO[C@@](c4cc(Cl)c(F)c(Cl)c4)(C(F)(F)F)C3)cc2Cl)C1 (stereo partly drawn) [Compound A033, 2-chloro-4-[(5S)-5-(3,5-dichloro-4-fluoro-phenyl)-5-(trifluoromethyl)-4H-isoxazol-3-yl]-N-formyl-N-(3-methyl-4,5-dihydroisoxazol-5-yl)benzamide]
≥ 80%: mortality at 200 ppm [1] | percent control (mortality, anti-feedant effect or growth inhibition) at 200 ppm [2] | percent effect (mortality or growth inhibition) at 200 ppm [3] | mortality at 200 ppm [4] | mortality at 200 ppm [5] | percent effect (mortality or growth inhibition) at 200 ppm [6]

Cc1cc(C2=NO[C@@](c3cc(Cl)c(F)c(Cl)c3)(C(F)(F)F)C2)ccc1C(=O)N(C=O)C1CC(C(F)(F)F)=NO1 (stereo partly drawn) [Compound A004, 4-[(5S)-5-(3,5-dichloro-4-fluoro-phenyl)-5-(trifluoromethyl)-4H-isoxazol-3-yl]-N-formyl-2-methyl-N-[3-(trifluoromethyl)-4,5-dihydroisoxazol-5-yl]benzamide]
≥ 80%: mortality at 200 ppm [1] | percent control (mortality, anti-feedant effect or growth inhibition) at 200 ppm [2] | percent effect (mortality or growth inhibition) at 200 ppm [3] | mortality at 200 ppm [4] | mortality at 200 ppm [5] | percent effect (mortality or growth inhibition) at 200 ppm [6]

COC1=NOC(NC(=O)c2ccc(C3=NO[C@@](c4cc(Cl)c(F)c(Cl)c4)(C(F)(F)F)C3)cc2C)C1 (stereo partly drawn) [Compound A030, 4-[(5S)-5-(3,5-dichloro-4-fluoro-phenyl)-5-(trifluoromethyl)-4H-isoxazol-3-yl]-N-(3-methoxy-4,5-dihydroisoxazol-5-yl)-2-methyl-benzamide]
≥ 80%: mortality at 200 ppm [1] | percent control (mortality, anti-feedant effect or growth inhibition) at 200 ppm [2] | percent effect (mortality or growth inhibition) at 200 ppm [3] | mortality at 200 ppm [4] | mortality at 200 ppm [5] | percent effect (mortality or growth inhibition) at 200 ppm [6]

CC1=NOC(N(C=O)C(=O)c2ccc(C3=NO[C@@](c4cc(Cl)c(Cl)c(Cl)c4)(C(F)(F)F)C3)cc2Cl)C1 (stereo partly drawn) [Compound A024, 2-chloro-N-formyl-N-(3-methyl-4,5-dihydroisoxazol-5-yl)-4-[(5S)-5-(3,4,5-trichlorophenyl)-5-(trifluoromethyl)-4H-isoxazol-3-yl]benzamide]
≥ 80%: mortality at 200 ppm [1] | percent control (mortality, anti-feedant effect or growth inhibition) at 200 ppm [2] | percent effect (mortality or growth inhibition) at 200 ppm [3] | mortality at 200 ppm [4] | mortality at 200 ppm [5] | percent effect (mortality or growth inhibition) at 200 ppm [6]

Cc1cc(C2=NO[C@@](c3cc(Cl)c(F)c(Cl)c3)(C(F)(F)F)C2)ccc1C(=O)N(C=O)C1CC(C2CC2)=NO1 (stereo partly drawn) [Compound A031, N-(3-cyclopropyl-4,5-dihydroisoxazol-5-yl)-4-[(5S)-5-(3,5-dichloro-4-fluoro-phenyl)-5-(trifluoromethyl)-4H-isoxazol-3-yl]-N-formyl-2-methyl-benzamide]
≥ 80%: mortality at 200 ppm [1] | percent control (mortality, anti-feedant effect or growth inhibition) at 200 ppm [2] | percent effect (mortality or growth inhibition) at 200 ppm [3] | mortality at 200 ppm [4] | mortality at 200 ppm [5] | percent effect (mortality or growth inhibition) at 200 ppm [6]

Cc1cc(C2=NO[C@@](c3cc(Cl)c(F)c(Cl)c3)(C(F)(F)F)C2)ccc1C(=O)NC1CC(C(F)(F)F)=NO1 (stereo partly drawn) [Compound A005, 4-[(5S)-5-(3,5-dichloro-4-fluoro-phenyl)-5-(trifluoromethyl)-4H-isoxazol-3-yl]-2-methyl-N-[3-(trifluoromethyl)-4,5-dihydroisoxazol-5-yl]benzamide]
≥ 80%: mortality at 200 ppm [1] | percent control (mortality, anti-feedant effect or growth inhibition) at 200 ppm [2] | percent effect (mortality or growth inhibition) at 200 ppm [3] | mortality at 200 ppm [4] | mortality at 200 ppm [5] | percent effect (mortality or growth inhibition) at 200 ppm [6]

CCOC1=NOC(NC(=O)c2ccc(C3=NO[C@@](c4cc(Cl)c(F)c(Cl)c4)(C(F)(F)F)C3)cc2Cl)C1 (stereo partly drawn) [Compound A064]
≥ 80%: mortality at 200 ppm [1] | percent control (mortality, anti-feedant effect or growth inhibition) at 200 ppm [2] | percent effect (mortality or growth inhibition) at 200 ppm [3] | mortality at 200 ppm [4] | mortality at 200 ppm [5] | percent effect (mortality or growth inhibition) at 200 ppm [6]

Cc1cc(C2=NO[C@@](c3cc(Cl)cc(Cl)c3)(C(F)(F)F)C2)ccc1C(=O)N(C=O)C1CC(C(F)(F)F)=NO1 (stereo partly drawn) [Compound A138]
≥ 80%: mortality at 200 ppm [1] | percent control (mortality, anti-feedant effect or growth inhibition) at 200 ppm [2] | percent effect (mortality or growth inhibition) at 200 ppm [3] | mortality at 200 ppm [4] | mortality at 200 ppm [5] | percent effect (mortality or growth inhibition) at 200 ppm [6]

CCSC1=NOC(NC(=O)c2ccc(C3=NO[C@@](c4cc(Cl)cc(C(F)(F)F)c4)(C(F)(F)F)C3)cc2C)C1 (stereo partly drawn) [Compound A051]
≥ 80%: mortality at 200 ppm [1] | percent control (mortality, anti-feedant effect or growth inhibition) at 200 ppm [2] | percent effect (mortality or growth inhibition) at 200 ppm [3] | mortality at 200 ppm [4] | mortality at 200 ppm [5] | percent effect (mortality or growth inhibition) at 200 ppm [6]

CC1=NOC(NC(=O)c2ccc(C3=NO[C@@](c4cc(Cl)c(F)c(Cl)c4)(C(F)(F)F)C3)cc2C)C1 (stereo partly drawn) [Compound A009, 4-[(5S)-5-(3,5-dichloro-4-fluoro-phenyl)-5-(trifluoromethyl)-4H-isoxazol-3-yl]-2-methyl-N-(3-methyl-4,5-dihydroisoxazol-5-yl)benzamide]
≥ 80%: mortality at 200 ppm [1] | percent control (mortality, anti-feedant effect or growth inhibition) at 200 ppm [2] | percent effect (mortality or growth inhibition) at 200 ppm [3] | mortality at 200 ppm [4] | mortality at 200 ppm [5] | percent effect (mortality or growth inhibition) at 200 ppm [6]

CC1=NOC(NC(=O)c2ccc(C3=NO[C@@](c4cc(Cl)cc(C(F)(F)F)c4)(C(F)(F)F)C3)cc2C)C1 (stereo partly drawn) [Compound A028, 4-[(5S)-5-[3-chloro-5-(trifluoromethyl)phenyl]-5-(trifluoromethyl)-4H-isoxazol-3-yl]-2-methyl-N-(3-methyl-4,5-dihydroisoxazol-5-yl)benzamide]
≥ 80%: mortality at 200 ppm [1] | percent control (mortality, anti-feedant effect or growth inhibition) at 200 ppm [2] | percent effect (mortality or growth inhibition) at 200 ppm [3] | mortality at 200 ppm [4] | mortality at 200 ppm [5] | percent effect (mortality or growth inhibition) at 200 ppm [6]
